One assay has as its system NCI-H1975. In kind it is functional, cell-based. The note with it: Homo sapiens, NCI-H1975, 48 h.
Assay [1] relates to HL-60. In kind it is functional, cell-based. The note with it: Homo sapiens, HL-60, 48 h.
In assay [2] the target is Xanthine dehydrogenase/oxidase (Bos taurus, UniProt P80457). In words: Inhibition of bovine milk xanthine oxidase.
The test system of the next assay is MDA-MB-231. As to the kind of experiment: cells. The note with it: Homo sapiens, MDA-MB-231, 48 h.
The subject of assay [3] is HL-60. As to the kind of experiment: Downregulation of mTOR expression level in human HL-60 cells at 0.5 to 2 uM by Western blotting analysis. The note with it: dose 0.5-2 µM. In kind it is functional, cell-based.
Assay [4] relates to Rattus norvegicus. In words: Anti-hyperuricemic activity against potassium oxonate-induced hyperuricemia Wistar rat model assessed as decrease in blood urea level at 10 mg/kg measured after 14 days. In kind it is functional, organism-based. The note with it: time 14.0 day.
For assay [5], the system named is Rattus norvegicus. In words: Anti-hyperuricemic activity against potassium oxonate-induced hyperuricemia Wistar rat model assessed as decrease in serum creatinine level at 10 mg/kg measured after 14 days. In kind it is functional, organism-based. The note with it: time 14.0 day.
The subject of assay [6] is Rattus norvegicus. As to the kind of experiment: Anti-hyperuricemic activity against potassium oxonate-induced hyperuricemia Wistar rat model assessed as decrease in serum uric acid level at 10 mg/kg measured after 14 days. In kind it is functional, organism-based. The note with it: time 14.0 day.

Active and inactive are the calls of the source. The rule behind the calls is not given here.

Sequence of Xanthine dehydrogenase/oxidase (P80457 whole entry): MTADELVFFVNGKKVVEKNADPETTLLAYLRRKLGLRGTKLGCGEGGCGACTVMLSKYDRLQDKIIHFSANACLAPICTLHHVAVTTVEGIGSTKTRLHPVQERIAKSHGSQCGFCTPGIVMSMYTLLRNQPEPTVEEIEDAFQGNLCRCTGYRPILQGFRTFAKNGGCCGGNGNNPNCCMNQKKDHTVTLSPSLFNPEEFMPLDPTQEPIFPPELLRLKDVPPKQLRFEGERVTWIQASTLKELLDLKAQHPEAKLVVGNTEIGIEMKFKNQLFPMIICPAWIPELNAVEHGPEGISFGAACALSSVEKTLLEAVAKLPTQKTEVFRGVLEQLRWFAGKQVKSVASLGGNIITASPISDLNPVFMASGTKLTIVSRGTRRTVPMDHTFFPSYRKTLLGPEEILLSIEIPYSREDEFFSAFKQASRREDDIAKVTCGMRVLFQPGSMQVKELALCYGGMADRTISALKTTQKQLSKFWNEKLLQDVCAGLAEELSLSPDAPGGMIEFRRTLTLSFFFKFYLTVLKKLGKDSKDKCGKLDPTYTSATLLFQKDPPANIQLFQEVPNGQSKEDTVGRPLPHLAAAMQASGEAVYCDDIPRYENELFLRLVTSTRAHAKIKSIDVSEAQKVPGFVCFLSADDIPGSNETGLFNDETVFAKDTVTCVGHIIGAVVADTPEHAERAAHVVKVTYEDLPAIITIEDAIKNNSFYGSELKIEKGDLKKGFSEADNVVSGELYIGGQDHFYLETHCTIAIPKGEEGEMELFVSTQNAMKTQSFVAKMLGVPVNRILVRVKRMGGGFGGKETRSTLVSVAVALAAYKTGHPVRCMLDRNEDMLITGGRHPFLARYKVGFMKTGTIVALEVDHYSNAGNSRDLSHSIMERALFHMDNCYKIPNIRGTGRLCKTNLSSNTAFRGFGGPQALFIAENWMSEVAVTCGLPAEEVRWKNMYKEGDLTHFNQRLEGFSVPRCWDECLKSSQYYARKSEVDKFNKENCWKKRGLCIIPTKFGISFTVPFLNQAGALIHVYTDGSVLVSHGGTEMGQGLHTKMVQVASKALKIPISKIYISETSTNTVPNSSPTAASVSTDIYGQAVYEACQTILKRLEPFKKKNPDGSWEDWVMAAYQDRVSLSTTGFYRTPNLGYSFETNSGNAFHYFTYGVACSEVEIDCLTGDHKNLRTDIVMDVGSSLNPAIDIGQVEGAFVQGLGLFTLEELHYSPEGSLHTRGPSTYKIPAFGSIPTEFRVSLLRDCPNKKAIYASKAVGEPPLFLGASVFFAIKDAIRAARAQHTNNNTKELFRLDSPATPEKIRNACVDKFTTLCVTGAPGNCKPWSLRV
Description for MDA-MB-231: Cytotoxicity against human MDA-MB-231 cells incubated for 48 hrs by MTT assay

What is called IC50 is the concentration at which inhibition is half-maximal. Low values mean greater potency, high ones weaker potency. In the case of `Cc1nc(-c2ccc(OCC(C)C)c(C#N)c2)sc1C(=O)NCc1ccc(NC(=O)CCCCCCC(=O)Nc2ccccc2N)cc1`, the IC50 is 9.36 µM with NCI-H1975, 1.58 µM in the assay with HL-60 [1], above 2 µM in assay [2] and 5.55 µM with MDA-MB-231.

Consider `Cc1nc(-c2ccc(OCC(C)C)c(C#N)c2)sc1C(=O)NCc1ccc(NC(=O)CCCCCCCC(=O)Nc2ccccc2N)cc1`, for which the half-inhibitory concentration (IC50) in the assay with NCI-H1975 was 11.2 µM; with HL-60 [1], 1.64 µM; in assay [2], above 2 µM; in the assay with MDA-MB-231, 3.81 µM.

As for `Cc1nc(-c2ccc(OCC(C)C)c(C#N)c2)sc1C(=O)NCc1ccc(C(=O)NO)cc1`, the IC50 with NCI-H1975 was determined as 11.4 µM; in the assay on HL-60 [1], 0.805 µM; in assay [2] it was 0.021 µM; with MDA-MB-231, 4.09 µM.

With `Cc1nc(-c2ccc(OCC(C)C)c(C#N)c2)sc1C(=O)NCc1ccc(NC(=O)CCCCCC(=O)NO)cc1`, the IC50 was above 50 µM in the assay with NCI-H1975, 18 µM in the assay with HL-60 [1], above 2 µM in assay [2] and above 50 µM with MDA-MB-231.

With `Cc1nc(-c2ccc(OCC(C)C)c(C#N)c2)sc1C(=O)NO`, the IC50 with NCI-H1975 is above 50 µM; in the assay on HL-60 [1] it was 10.6 µM; in assay [2] it was 0.0033 µM; in the assay with MDA-MB-231, above 50 µM.

With `O=C(CCCCCCC(=O)Nc1ccccc1)NO`, the result in the assay on HL-60 [3] was Active.

Take `Cc1nc(-c2ccc(OCC(C)C)c(C#N)c2)sc1C(=O)NCc1ccc(NC(=O)CCCCCCCC(=O)NO)cc1`: the IC50 was 18.7 µM in the assay with NCI-H1975, above 50 µM in the assay on HL-60 [1], above 2 µM in assay [2] and 31.5 µM in the assay with MDA-MB-231.

For `Cc1nc(-c2ccc(OCC(C)C)c(C#N)c2)sc1C(=O)Nc1ccccc1N`, the IC50 with NCI-H1975 was above 50 µM; with HL-60 [1], 1.26 µM; in assay [2], 0.076 µM; in the assay with MDA-MB-231, above 50 µM.

With `Cc1nc(-c2ccc(OCC(C)C)c(C#N)c2)sc1C(=O)NCCCCCC(=O)Nc1ccccc1N`, the IC50 came out at 18.2 µM in the assay with NCI-H1975, 1.71 µM in the assay on HL-60 [1], 0.7 µM in assay [2] and 7.08 µM in the assay with MDA-MB-231.

Turning to `Cc1nc(-c2ccc(OCC(C)C)c(C#N)c2)sc1C(=O)NCc1ccc(C(=O)NCCCCCCC(=O)NO)cc1`, the IC50 with NCI-H1975 is above 50 µM; in the assay with HL-60 [1] it was 0.56 µM; in assay [2], above 2 µM; with MDA-MB-231, 9.9 µM.

For the compound `Cc1nc(-c2ccc(OCC(C)C)c(C#N)c2)sc1C(=O)O` [FEBUXOSTAT], the IC50 in the assay on NCI-H1975, in the assay on HL-60 [1] and in the assay on MDA-MB-231 was above 100 µM in each case. Also, the result in the assay with Rattus norvegicus [4], in the assay on Rattus norvegicus [5] and in the assay on Rattus norvegicus [6] was Active.

As to `Cc1nc(-c2ccc(OCC(C)C)c(C#N)c2)sc1C(=O)NCc1ccc(C(=O)NCCCCCCC(=O)Nc2ccccc2N)cc1`, the IC50 is above 50 µM with NCI-H1975, 0.696 µM in the assay with HL-60 [1], above 2 µM in assay [2] and above 50 µM in the assay on MDA-MB-231.

`Cc1nc(-c2ccc(OCC(C)C)c(C#N)c2)sc1C(=O)NCc1ccc(C(=O)Nc2ccccc2N)cc1`: the IC50 was 18.3 µM in the assay on NCI-H1975, 1.01 µM in the assay with HL-60 [1], above 2 µM in assay [2] and 9.63 µM in the assay with MDA-MB-231.

On to `Cc1nc(-c2ccc(OCC(C)C)c(C#N)c2)sc1C(=O)NCc1ccc(NC(=O)CCCCCCCCC(=O)Nc2ccccc2N)cc1`, for which the IC50 in the assay with NCI-H1975 was 28.8 µM; in the assay on HL-60 [1], 4.25 µM; in assay [2], above 2 µM; in the assay with MDA-MB-231, 3.38 µM.

With `Cc1nc(-c2ccc(OCC(C)C)c(C#N)c2)sc1C(=O)NCc1ccc(NC(=O)CCCCCCCCC(=O)NO)cc1`, the IC50 in the assay on NCI-H1975 was 8.61 µM; in the assay on HL-60 [1] it was 3.04 µM; in assay [2], above 2 µM; with MDA-MB-231, above 50 µM.

On to `Cc1nc(-c2ccc(OCC(C)C)c(C#N)c2)sc1C(=O)NCCCCCCC(=O)Nc1ccccc1N`, for which the IC50 in the assay with NCI-H1975 is above 50 µM; in the assay with HL-60 [1] it was 1.54 µM; in assay [2] it was 0.85 µM; with MDA-MB-231, 41.1 µM.

Turning to `Cc1nc(-c2ccc(OCC(C)C)c(C#N)c2)sc1C(=O)NCCCCCC(=O)NO`, the IC50 is 6.77 µM in the assay with NCI-H1975, 1.29 µM with HL-60 [1], 0.0062 µM in assay [2] and 6.35 µM with MDA-MB-231.

`Cc1nc(-c2ccc(OCC(C)C)c(C#N)c2)sc1C(=O)NCc1ccc(NC(=O)CCCCCCC(=O)NO)cc1`: the IC50 is 12.6 µM in the assay on NCI-H1975, 3.42 µM in the assay with HL-60 [1], above 2 µM in assay [2] and 12.4 µM with MDA-MB-231.

As to `Cc1nc(-c2ccc(OCC(C)C)c(C#N)c2)sc1C(=O)NCc1ccc(NC(=O)CCCCCC(=O)Nc2ccccc2N)cc1`, the IC50 was 28.3 µM in the assay on NCI-H1975, 11.8 µM in the assay with HL-60 [1], above 2 µM in assay [2] and 19.6 µM in the assay with MDA-MB-231.

Source of the values: ChEMBL document CHEMBL6083219, “Rationally designed febuxostat-based hydroxamic acid and its pH-Responsive nanoformulation elicits anti-tumor activity” (Eur J Med Chem, 2024).
